This is an account of results in US9580442B2, “Tricyclic heterocyclic compounds as phosphoinositide 3-kinase inhibitors” (Karus Therapeutics Limited, priority 2009, dated 2017).

Where two headings read alike, the source gives them in different places.

One test deals with PI3K p110δ (Homo sapiens (Human), UniProt O00329). Put plainly: PI3K isoform biochemical assay, p110δ.
A further test addresses PI3K p110β (Homo sapiens (Human), UniProt P42338). Put plainly: PI3K isoform biochemical assay, p110β.
The next test has as its target PI3K p110γ (Homo sapiens (Human), UniProt P48736). Put plainly: PI3K isoform biochemical assay, p110γ.
The target of the next test is PI3K p110α (Homo sapiens (Human), UniProt P42336). Put plainly: PI3K isoform biochemical assay, p110α.
PI3K p110α, sequence (P42336 whole entry, canonical isoform): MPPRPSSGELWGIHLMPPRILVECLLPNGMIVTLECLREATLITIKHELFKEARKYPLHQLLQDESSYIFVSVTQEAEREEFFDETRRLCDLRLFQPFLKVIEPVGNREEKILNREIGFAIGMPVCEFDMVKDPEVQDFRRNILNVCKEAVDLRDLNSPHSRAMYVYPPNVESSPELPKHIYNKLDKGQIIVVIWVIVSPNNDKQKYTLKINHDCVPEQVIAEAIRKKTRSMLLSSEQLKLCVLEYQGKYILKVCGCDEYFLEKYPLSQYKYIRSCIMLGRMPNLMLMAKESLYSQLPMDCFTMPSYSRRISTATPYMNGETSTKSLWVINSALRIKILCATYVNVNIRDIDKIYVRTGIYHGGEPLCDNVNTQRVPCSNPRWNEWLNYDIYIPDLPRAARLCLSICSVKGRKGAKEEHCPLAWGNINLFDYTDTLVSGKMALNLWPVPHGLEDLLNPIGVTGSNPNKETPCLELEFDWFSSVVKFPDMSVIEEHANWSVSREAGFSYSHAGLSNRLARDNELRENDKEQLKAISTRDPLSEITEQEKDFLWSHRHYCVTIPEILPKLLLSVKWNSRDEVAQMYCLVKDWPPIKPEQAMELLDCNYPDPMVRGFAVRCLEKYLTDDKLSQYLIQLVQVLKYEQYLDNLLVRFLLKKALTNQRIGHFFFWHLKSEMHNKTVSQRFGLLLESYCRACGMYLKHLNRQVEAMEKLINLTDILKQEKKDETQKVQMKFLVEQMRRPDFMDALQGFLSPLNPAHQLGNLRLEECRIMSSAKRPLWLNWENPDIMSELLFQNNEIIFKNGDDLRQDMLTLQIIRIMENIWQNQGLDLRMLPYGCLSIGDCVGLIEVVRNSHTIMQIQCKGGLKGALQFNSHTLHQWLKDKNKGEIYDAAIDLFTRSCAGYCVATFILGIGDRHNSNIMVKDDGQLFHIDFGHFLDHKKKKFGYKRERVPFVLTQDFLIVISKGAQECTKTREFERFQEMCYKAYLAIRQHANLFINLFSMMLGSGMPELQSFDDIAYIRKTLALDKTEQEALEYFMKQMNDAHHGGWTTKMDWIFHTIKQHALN
PI3K p110α, sequence (P27986 whole entry partner, canonical isoform): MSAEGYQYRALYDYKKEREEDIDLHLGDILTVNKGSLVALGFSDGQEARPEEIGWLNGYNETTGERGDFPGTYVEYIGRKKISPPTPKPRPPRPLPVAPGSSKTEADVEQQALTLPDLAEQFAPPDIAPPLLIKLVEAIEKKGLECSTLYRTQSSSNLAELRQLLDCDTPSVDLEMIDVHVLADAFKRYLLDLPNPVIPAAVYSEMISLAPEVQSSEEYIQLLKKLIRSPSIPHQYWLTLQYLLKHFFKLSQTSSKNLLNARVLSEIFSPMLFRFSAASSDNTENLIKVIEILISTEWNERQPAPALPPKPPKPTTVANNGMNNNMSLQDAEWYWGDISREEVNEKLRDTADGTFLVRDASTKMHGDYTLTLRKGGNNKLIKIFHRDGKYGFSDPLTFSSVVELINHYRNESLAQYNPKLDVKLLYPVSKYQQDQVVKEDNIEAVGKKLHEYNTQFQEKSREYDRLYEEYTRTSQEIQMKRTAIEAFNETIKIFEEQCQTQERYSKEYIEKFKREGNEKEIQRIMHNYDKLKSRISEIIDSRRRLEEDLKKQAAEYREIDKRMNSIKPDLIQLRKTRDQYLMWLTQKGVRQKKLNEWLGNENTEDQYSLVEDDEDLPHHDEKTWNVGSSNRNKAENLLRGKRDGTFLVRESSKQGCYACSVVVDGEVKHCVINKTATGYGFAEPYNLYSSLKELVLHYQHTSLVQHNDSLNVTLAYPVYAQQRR
Another test concerns PC3 (Prostate Tumour). Put plainly: In vitro inhibition of tumour cell proliferation, PC3. It is filed as cell-based.
The subject of the next test is A549 (Lung Tumour). The test can be described thus: In vitro inhibition of tumour cell proliferation, A549. It is filed as cell-based.
Test [1] relates to Rheumatoid Arthritis Synovial Fibroblast (RASF). The test can be described thus: In vitro inhibition of rheumatoid arthritis synovial fibroblast (RASF) proliferation. Format: cell-based.
A further test has as its system MCF7 (Breast Tumour). Put plainly: In vitro inhibition of tumour cell proliferation, MCF7. It is filed as cell-based.
The test system of a further test is IL-21. The test can be described thus: Inhibition of IL-21 production from anti-CD3-stimulated hPBMCs. It is filed as cell-based, human. Conditions: for inhibition at 1 µM: Homo sapiens, hPBMCs stimulated with anti-CD3, read-out: % Inhibition of Proinflammatory Cytokine Production at 1 uM, IL-21. How it is done: (§1) 2) Anti-Inflammatory Activity: Inhibition of the Production of Pro-Inflammatory Cytokines from Stimulated Human Peripheral Blood Mononuclear Cells (hPBMCs)
(§2) Compounds were tested at a concentration of 1 uM for cytokine release inhibition in hPBMCs stimulated with LPS (TNFα), PHA (IFNγ) and anti-CD3 (IL-17A, IL-17F, IL-21, IL-23): […]

The next test deals with TNFα. The test can be described thus: Inhibition of TNFα production from LPS-stimulated hPBMCs. It is filed as cell-based, human. Conditions: hPBMCs stimulated with LPS; for inhibition at 1 µM: Homo sapiens, read-out: % Inhibition of Proinflammatory Cytokine Production at 1 uM, TNFα. The method, then: as §1, §2
Another test has as its system IL-23. The test can be described thus: Inhibition of IL-23 production from anti-CD3-stimulated hPBMCs. It is filed as cell-based, human. As to conditions: for inhibition at 1 µM: Homo sapiens, hPBMCs stimulated with anti-CD3, read-out: % Inhibition of Proinflammatory Cytokine Production at 1 uM, IL-23. The method, then: as §1, §2
In a further test the test system is IL-17F. Put plainly: Inhibition of IL-17F production from anti-CD3-stimulated hPBMCs. It is filed as cell-based, human. Conditions: for inhibition at 1 µM: Homo sapiens, hPBMCs stimulated with anti-CD3, read-out: % Inhibition of Proinflammatory Cytokine Production at 1 uM, IL-17F. How it is done: as §1, §2
Another test deals with IL-17A. The test can be described thus: Inhibition of IL-17A production from anti-CD3-stimulated hPBMCs. Format: cell-based, human. As to conditions: for inhibition at 1 µM: Homo sapiens, hPBMCs stimulated with anti-CD3, read-out: % Inhibition of Proinflammatory Cytokine Production at 1 uM, IL-17A. The method, then:
as §1, §2

A further test concerns IFNγ. Put plainly: Inhibition of IFNγ production from PHA-stimulated hPBMCs. It is filed as cell-based, human. Conditions: hPBMCs stimulated with PHA; for inhibition at 1 µM: Homo sapiens, read-out: % Inhibition of Proinflammatory Cytokine Production at 1 uM, IFNγ. The method, then:
as §1, §2

The mark [2] stands for this setting: hPBMCs stimulated with anti-CD3.

PI3K p110δ, sequence (O00329 whole entry, canonical isoform): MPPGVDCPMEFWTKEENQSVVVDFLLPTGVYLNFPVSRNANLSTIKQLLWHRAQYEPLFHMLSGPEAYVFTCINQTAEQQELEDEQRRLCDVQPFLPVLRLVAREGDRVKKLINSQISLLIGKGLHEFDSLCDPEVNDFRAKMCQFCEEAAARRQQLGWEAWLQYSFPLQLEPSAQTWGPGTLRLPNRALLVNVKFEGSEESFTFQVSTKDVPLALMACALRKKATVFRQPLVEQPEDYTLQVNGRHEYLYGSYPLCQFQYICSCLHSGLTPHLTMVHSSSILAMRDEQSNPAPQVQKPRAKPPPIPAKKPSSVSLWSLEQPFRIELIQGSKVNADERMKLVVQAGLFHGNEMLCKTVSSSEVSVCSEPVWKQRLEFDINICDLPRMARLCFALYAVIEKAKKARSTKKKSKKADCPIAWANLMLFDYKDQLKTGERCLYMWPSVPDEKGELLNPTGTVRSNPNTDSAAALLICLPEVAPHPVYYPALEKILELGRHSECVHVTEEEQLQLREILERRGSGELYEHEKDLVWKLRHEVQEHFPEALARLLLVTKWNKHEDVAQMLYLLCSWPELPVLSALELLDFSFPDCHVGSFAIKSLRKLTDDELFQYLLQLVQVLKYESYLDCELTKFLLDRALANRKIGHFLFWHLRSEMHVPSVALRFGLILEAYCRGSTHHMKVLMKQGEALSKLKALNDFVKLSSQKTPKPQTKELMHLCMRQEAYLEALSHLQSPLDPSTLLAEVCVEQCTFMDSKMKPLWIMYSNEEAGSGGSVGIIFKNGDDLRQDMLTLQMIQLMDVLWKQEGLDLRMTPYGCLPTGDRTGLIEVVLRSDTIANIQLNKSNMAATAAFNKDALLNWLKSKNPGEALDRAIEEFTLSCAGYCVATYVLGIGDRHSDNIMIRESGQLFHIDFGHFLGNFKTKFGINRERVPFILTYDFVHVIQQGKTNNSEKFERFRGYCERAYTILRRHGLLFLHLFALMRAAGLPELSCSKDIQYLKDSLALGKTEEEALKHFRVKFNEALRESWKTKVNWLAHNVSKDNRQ
PI3K p110δ, sequence (P27986 whole entry partner, canonical isoform): as the sequence (P27986 whole entry partner, canonical isoform) above
PI3K p110β, sequence (P42338 whole entry, canonical isoform): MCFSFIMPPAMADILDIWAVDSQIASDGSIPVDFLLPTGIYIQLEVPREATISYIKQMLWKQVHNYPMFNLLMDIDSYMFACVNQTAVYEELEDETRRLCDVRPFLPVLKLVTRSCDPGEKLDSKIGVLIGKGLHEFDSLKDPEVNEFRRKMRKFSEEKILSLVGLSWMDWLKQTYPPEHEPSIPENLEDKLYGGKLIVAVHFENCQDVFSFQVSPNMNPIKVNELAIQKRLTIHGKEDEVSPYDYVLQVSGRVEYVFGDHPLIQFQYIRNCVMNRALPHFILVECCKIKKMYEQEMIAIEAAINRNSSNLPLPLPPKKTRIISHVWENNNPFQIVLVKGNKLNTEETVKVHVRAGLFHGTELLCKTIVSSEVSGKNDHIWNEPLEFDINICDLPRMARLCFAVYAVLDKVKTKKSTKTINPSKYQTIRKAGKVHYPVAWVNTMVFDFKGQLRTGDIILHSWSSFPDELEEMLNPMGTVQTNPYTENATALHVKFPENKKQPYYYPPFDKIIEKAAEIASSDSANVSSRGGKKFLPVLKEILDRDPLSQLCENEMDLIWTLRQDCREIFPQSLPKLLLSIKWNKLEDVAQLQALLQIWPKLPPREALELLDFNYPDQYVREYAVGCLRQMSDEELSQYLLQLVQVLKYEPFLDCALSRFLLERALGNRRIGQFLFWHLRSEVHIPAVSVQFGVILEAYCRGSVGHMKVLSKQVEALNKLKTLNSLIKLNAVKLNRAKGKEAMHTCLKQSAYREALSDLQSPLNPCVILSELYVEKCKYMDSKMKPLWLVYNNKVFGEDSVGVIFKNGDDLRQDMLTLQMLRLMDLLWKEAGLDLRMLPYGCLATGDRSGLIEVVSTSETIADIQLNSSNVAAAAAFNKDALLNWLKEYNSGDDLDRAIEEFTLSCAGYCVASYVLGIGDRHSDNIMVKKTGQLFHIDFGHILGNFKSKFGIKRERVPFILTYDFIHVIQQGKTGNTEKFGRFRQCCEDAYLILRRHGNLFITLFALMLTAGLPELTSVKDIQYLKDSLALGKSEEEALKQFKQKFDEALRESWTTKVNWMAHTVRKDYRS
PI3K p110β, sequence (P27986 whole entry partner, canonical isoform): as the sequence (P27986 whole entry partner, canonical isoform) above
PI3K p110γ, sequence (P48736 whole entry, canonical isoform): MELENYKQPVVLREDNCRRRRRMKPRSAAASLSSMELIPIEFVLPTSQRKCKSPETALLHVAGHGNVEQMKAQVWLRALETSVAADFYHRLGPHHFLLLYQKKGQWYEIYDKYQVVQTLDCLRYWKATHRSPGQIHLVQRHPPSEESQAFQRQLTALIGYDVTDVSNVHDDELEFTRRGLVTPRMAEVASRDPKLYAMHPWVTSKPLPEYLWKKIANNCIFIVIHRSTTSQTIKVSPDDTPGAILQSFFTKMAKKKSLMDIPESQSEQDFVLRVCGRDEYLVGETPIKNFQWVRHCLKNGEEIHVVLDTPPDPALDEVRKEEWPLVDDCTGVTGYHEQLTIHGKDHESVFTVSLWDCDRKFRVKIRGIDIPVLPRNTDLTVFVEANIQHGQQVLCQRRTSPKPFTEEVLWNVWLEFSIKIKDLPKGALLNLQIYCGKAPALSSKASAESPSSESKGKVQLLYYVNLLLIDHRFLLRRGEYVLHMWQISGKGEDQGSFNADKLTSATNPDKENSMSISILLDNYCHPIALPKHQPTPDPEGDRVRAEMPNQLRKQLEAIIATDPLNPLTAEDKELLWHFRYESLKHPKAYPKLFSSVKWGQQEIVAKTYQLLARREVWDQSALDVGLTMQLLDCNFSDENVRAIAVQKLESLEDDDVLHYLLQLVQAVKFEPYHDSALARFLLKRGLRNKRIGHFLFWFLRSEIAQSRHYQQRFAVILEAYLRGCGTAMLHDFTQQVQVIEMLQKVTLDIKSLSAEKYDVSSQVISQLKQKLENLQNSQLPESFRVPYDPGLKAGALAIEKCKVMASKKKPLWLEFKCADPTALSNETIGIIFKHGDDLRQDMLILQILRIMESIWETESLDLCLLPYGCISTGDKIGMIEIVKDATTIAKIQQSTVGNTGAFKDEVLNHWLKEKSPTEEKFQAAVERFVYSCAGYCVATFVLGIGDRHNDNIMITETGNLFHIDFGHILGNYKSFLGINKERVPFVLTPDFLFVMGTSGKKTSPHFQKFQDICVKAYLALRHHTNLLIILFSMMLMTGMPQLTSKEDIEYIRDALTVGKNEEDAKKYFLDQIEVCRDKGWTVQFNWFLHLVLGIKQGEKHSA

As for `N#CCCN1CCN(Cc2cnc3oc4c(N5CCOCC5)nc(-c5cccc6[nH]ccc56)nc4c3c2)CC1` [R, 3-{4-[2-(1H-Indol-4-yl)-4-morpholin-4-yl-pyrido[3′,2′:4,5]furo[3,2-d]pyrimidin-8-ylmethyl]-piperazin-1-yl}-propionitrile], the IC50 was found to be 22 nM on PI3K p110δ, 131 nM against PI3K p110β, 2540 nM against PI3K p110γ and 597 nM against PI3K p110α.

As for `c1cc(-c2nc(N3CCOCC3)c3oc4ncc(CN5CCOCC5)cc4c3n2)c2cc[nH]c2c1` [K, 2-(1H-Indol-4-yl)-4-morpholin-4-yl-8-morpholin-4-ylmethyl-pyrido[3′,2′:4,5]furo[3,2-d]pyrimidine], the IC50 on PI3K p110δ was found to be 6 nM; with PC3 (Prostate Tumour) (Homo sapiens, PC-3), 3340 nM; in the test on A549 (Lung Tumour) (Homo sapiens), 682 nM; on PI3K p110β it was 64 nM; at PI3K p110γ it was 2610 nM; in [1] (Fibroblast) it was 3020 nM. The IC50 stood at 352 nM with MCF7 (Breast Tumour) (Homo sapiens) and 355 nM at PI3K p110α.

With `c1cc(-c2cnc3oc4c(N5CCOCC5)nc(-c5cccc6[nH]ccc56)nc4c3c2)c2cc[nH]c2c1` [E, 2,8-Bis-(1H-indol-4-yl)-4-morpholin-4-yl-pyrido[3′,2′:4,5]furo[3,2-d]pyrimidine], the IC50 on PI3K p110δ was found to be 7 nM; against PI3K p110β, 69 nM; against PI3K p110γ it was 627 nM; against PI3K p110α, 88 nM.

`c1cc(-c2nc(N3CCOCC3)c3oc4ncc(N5CCOCC5)cc4c3n2)c2cc[nH]c2c1` [M, 2-(1H-Indol-4-yl)-4,8-di-morpholin-4-yl-pyrido[3′,2′:4,5]furo[3,2-d]pyrimidine]: the IC50 at PI3K p110δ was determined as 10 nM; on PI3K p110β, 25 nM; against PI3K p110γ, 219 nM; in [1] (Fibroblast), 1610 nM; on PI3K p110α it was 96 nM.

Regarding `CN(C)Cc1cnc2oc3c(N4CCOCC4)nc(-c4cccc5[nH]ccc45)nc3c2c1` [H, [2-(1H-Indol-4-yl)-4-morpholin-4-yl-pyrido[3′,2′:4,5]furo[3,2-d]pyrimidin-8-ylmethyl]-dimethyl-amine], the inhibition at 1 µM stood at 96% with IL-21; 75% in the test with TNFα; 93% with IL-23; 96% with IL-17F; 99% in the test with IL-17A; 87% with IFNγ. In addition, the IC50 at PI3K p110δ is 6 nM; in the test on PC3 (Prostate Tumour) (Homo sapiens, PC-3), 3030 nM; in the test on A549 (Lung Tumour) (Homo sapiens), 466 nM; at PI3K p110β, 63 nM; at PI3K p110γ, 213 nM; in test [1] (Fibroblast) it was 1900 nM. Moreover, the IC50 in the test on MCF7 (Breast Tumour) (Homo sapiens) was found to be 165 nM; against PI3K p110α it was 398 nM.

As for `c1cc(-c2nc(N3CCOCC3)c3oc4ncccc4c3n2)c2cc[nH]c2c1` [B, 2-(1H-Indol-4-yl)-4-morpholin-4-yl-pyrido[3′,2′:4,5]furo[3,2-d]pyrimidine], the inhibition at 1 µM came to 96% in the test on IL-21; 26% in the test with TNFα; 94% in the test with IL-23; 96% in the test on IL-17F; 99% with IL-17A; 73% with IFNγ. Moreover, the IC50 at PI3K p110δ was 6 nM; in the test on PC3 (Prostate Tumour) (Homo sapiens, PC-3) it was 1340 nM; in the test on A549 (Lung Tumour) (Homo sapiens), 229 nM; against PI3K p110β it was 19 nM; at PI3K p110γ, 317 nM; in [1] (Fibroblast), 817 nM. In addition, the IC50 was found to be 145 nM in the test on MCF7 (Breast Tumour) (Homo sapiens) and 159 nM against PI3K p110α.

As for `CN(C)C(=O)/C=C/c1cnc2oc3c(N4CCOCC4)nc(-c4cccc5[nH]ccc45)nc3c2c1` [G, (E)-3-[2-(1H-Indol-4-yl)-4-morpholin-4-yl-pyrido[3′,2′:4,5]furo[3,2-d]pyrimidin-8-yl]-N,N-dimethylacrylamide], the 50% inhibitory concentration (IC50) on PI3K p110δ turned out to be 5 nM; in the test on PC3 (Prostate Tumour) (Homo sapiens, PC-3), 3770 nM; in the test with A549 (Lung Tumour) (Homo sapiens), 186 nM; on PI3K p110β it was 83 nM; at PI3K p110γ, 1660 nM; in the test with MCF7 (Breast Tumour) (Homo sapiens), 127 nM. The same compound came in with an IC50 on PI3K p110α of 223 nM.

In the case of `c1cnc2oc3c(N4CCOCC4)nc(-c4ccnc5[nH]ccc45)nc3c2c1` [D, 4-Morpholin-4-yl-2-(1H-pyrrolo[2,3-b]pyridin-4-yl)-pyrido[3′,2′:4,5]furo[3,2-d]pyrimidine], the IC50 amounted to 33 nM at PI3K p110δ, 57 nM against PI3K p110β, 103 nM on PI3K p110γ and 104 nM at PI3K p110α.

“(E)-1-(4-Methyl-piperazin-1-yl)-3-[4-morpholin-4-yl-2-(1H-pyrrolo[2,3-b]pyridin-4-yl)-pyrido[3′,2′:4,5]furo[3,2-d]pyrimidin-8-yl]-propenone”: in the test with IL-21 (setting [2]), the “% Inhibition of Proinflammatory Cytokine Production at 1 uM, IL-21” value is 82%. Further, the IC50 on PI3K p110δ stood at 6 nM; in the test with PC3 (Prostate Tumour) it was 7290 nM; in the test with A549 (Lung Tumour) it was 1150 nM; against PI3K p110β, 109 nM; against PI3K p110γ, 269 nM; in test [1], 2240 nM. In addition, the IC50 with MCF7 (Breast Tumour) was found to be 215 nM; against PI3K p110α it was 127 nM. In addition, in the test on TNFα, the “% Inhibition of Proinflammatory Cytokine Production at 1 uM, TNFα” value came to 74%. The “% Inhibition of Proinflammatory Cytokine Production at 1 uM, IL-23” value with IL-23 (setting [2]) is 93%. For the same compound, the “% Inhibition of Proinflammatory Cytokine Production at 1 uM, IL-17F” value with IL-17F (setting [2]) turned out to be 74%. Besides, the “% Inhibition of Proinflammatory Cytokine Production at 1 uM, IL-17A” value in the test with IL-17A (setting [2]) is recorded as 77%. Further, the “% Inhibition of Proinflammatory Cytokine Production at 1 uM, IFNγ” value with IFNγ is listed as 67%.

`COCCN(C)Cc1cnc2oc3c(N4CCOCC4)nc(-c4cccc5[nH]ccc45)nc3c2c1` [L, [2-(1H-Indol-4-yl)-4-morpholin-4-yl-pyrido[3′,2′:4,5]furo[3,2-d]pyrimidin-8-ylmethyl]-(2-methoxy-ethyl)-methyl-amine]: the IC50 came out at 21 nM on PI3K p110δ; 3240 nM in the test on PC3 (Prostate Tumour) (Homo sapiens, PC-3); 1600 nM in the test with A549 (Lung Tumour) (Homo sapiens); 111 nM against PI3K p110β; 1820 nM at PI3K p110γ; 119 nM with MCF7 (Breast Tumour) (Homo sapiens). At PI3K p110α, this compound displayed a half-inhibitory concentration (IC50) of 604 nM.

Take `c1cc(-c2nc(N3CCOCC3)c3sc4ncccc4c3n2)c2cc[nH]c2c1` [A, 2-(1H-Indol-4-yl)-4-morpholin-4-yl-pyrido[3′,2′:4,5]thieno[3,2-d]pyrimidine]: the IC50 on PI3K p110δ was 15 nM; in the test with PC3 (Prostate Tumour) (Homo sapiens, PC-3), 3010 nM; with A549 (Lung Tumour) (Homo sapiens), 151 nM; at PI3K p110β, 137 nM; against PI3K p110γ it was 873 nM; in test [1] (Fibroblast), 1350 nM. The IC50 came to 331 nM with MCF7 (Breast Tumour) (Homo sapiens) and 54 nM against PI3K p110α.

Turning to `c1cc(-c2nc(N3CCOCC3)c3oc4ncc(CN5CCCCC5)cc4c3n2)c2cc[nH]c2c1` [Compound I, 2-(1H-Indol-4-yl)-4-morpholin-4-yl-8-piperidin-1-ylmethyl-pyrido[3′,2′:4,5]furo[3,2d]pyrimidine], the inhibition at 1 µM was 96% in the test on IL-21; 61% in the test with TNFα; 90% in the test on IL-23; 95% in the test with IL-17F; 95% with IL-17A; 80% in the test on IFNγ. In test [1] (Fibroblast), this compound returned an IC50 of 5720 nM.

As to `CN1CCN(Cc2cnc3oc4c(N5CCOCC5)nc(-c5cccc6[nH]ccc56)nc4c3c2)CC1` [J, 2-(1H-Indol-4-yl)-8-(4-methyl-piperazin-1-ylmethyl)-4-morpholin-4-yl-pyrido[3′,2′:4,5]furo[3,2-d]pyrimidine], the IC50 on PI3K p110δ worked out at 26 nM; against PI3K p110β it was 277 nM; against PI3K p110γ it was 1040 nM; against PI3K p110α it was 680 nM.

For orientation: IC50 means the point on the concentration scale where inhibition reaches its midpoint. The term inhibition denotes the percentage by which the read-out fell short of the control.
